Values after ≈ are worked out from the molar mass of the structure shown. Where two headings read alike, the source gives them in different places.
Experiments:
[1] = tested on: C. albicans CaCi-8; assay: microbe, parasite or virus in culture; format: cell-based, Candida albicans; conditions: for IC50: in the presence of fluconazole, read-out: Target Potency (μM) Mean ± S.E.M CaCi-8^a IC50
Description: This subset was re-subjected to the primary assay and was also tested concurrently in two secondary assays. Secondary assay 1 measured chemosensitization of the more resistant CaCi-8 strain. Secondary assay 2 eliminated anything with inherently antifungal activity. […] A final assay (secondary assay 3) was incorporated to discard any compound displaying toxicity to mammalian fibroblasts. […] This screening campaign is also illustrated in FIG. 3B.
Those that inhibited growth in the resistant strain were also tested for toxicity against Candida in the absence of fluconazole and for toxicity against mammalian cells using a fluorescence reporter assay. The positive control for screening in the Candida and mammalian cell assays was the Hsp90 inhibitor geldanamycin (acting in concert with fluconazole; FIG. 4). Compounds that passed these four hurdles were binned through use of a Saccharomyces assay to determine whether the mechanism of action might be through the Hsp90 pathway, the calcineurin pathway, or an uncategorized mechanism.

[2] = tested on: C. albicans CaCi-2; assay: CaCi-2 growth inhibition in the presence of 8 μg/ml fluconazole (Alamar Blue); format: cell-based, Candida albicans; conditions: for IC50: in the presence of fluconazole, read-out: Target Potency (μM) Mean ± S.E.M CaCi-2^a IC50
Description: Fluconazole was obtained from Sequoia Research Products, Ltd. and prepared in a 2 mg/ml stock solution in phosphate buffered saline (PBS). […] PBS (Catalog No. 21-040-CV) without calcium and magnesium was obtained from Cellgro. Penicillin/Streptomycin (Pen/Strep) was obtained from Gibco and prepared 100× in PBS.
RPMI medium (1×) was prepared by dissolving 10.4 g powdered medium in 800 ml water. A buffer of 34.52 g MOPS was added. While stirring, pH was adjusted to 7.0 with 10 N NaOH. Next, 10 ml uridine solution and 50 ml glucose solution were added. The final volume was adjusted to 1000 ml, and filter sterilized.
The following yeast strains were used in this study: C. albicans CaCi-2. Fungal inoculum was prepared as follows: 500 μl of strain was inoculated from cryopreserved stock into a 250-ml shaker flask containing 30 ml growth medium and shaken overnight at 30° C. The optical density (OD 600) of 1 ml fungal culture in a cuvette was read using a standard optical density reader (Eppendorf BioPhotometer Plus), with growth medium as a background blank. The desired volume of fungal inoculums was diluted to desired volume of fungal inoculums according to the following formula: (1/OD measured)×(Desired Final Volume of Inoculum)×0.3=Volume of fungal culture (μl) to add to desired volume of growth medium. When added to media in wells, this yields a calculated starting OD of the fungal inoculum of 0.00015.
Fluconazole stock solution was added to the fungal inoculum to achieve 8 μg/ml. Pen/Strep was added to the media to a 1% concentration (v/v). A Thermo Combi nL was used to dispense 20 μl/well of assay media into all wells. Geldanamycin was dispensed in positive control wells using Thermo Combi nL for a final concentration of 3 μM. Then, 100 nl of test compound was pinned from compound plates into assay plates using a CyBi-Well pin tool. A further 20 μl/well of culture was dispensed into the assay media in all wells. The plates were incubated in a humidified (90% humidity) Liconic incubator at 37° C. without agitation for 48 hours. Alamar Blue was diluted 1:40 in Ca/Mg-free PBS. To all plates, […] of the diluted Alamar Blue was added to the plates to a final dilution factor of 1:200. The plates were incubated for an additional 2 hours. Then, Relative Fluorescence Intensity (RFU) of each well was read on standard plate reader as a measure of relative fungal growth.

[3] = Plasma stability; conditions: % remaining in human plasma after a 5-hour incubation
[4] = tested on: C. albicans CaCi-2; assay: Secondary single-agent (no-fluconazole) activity assay; format: cell-based, Candida albicans; conditions: read-out: Target Potency (μM) Mean ± S.E.M CaCi-2^b IC50
Description: Clear, flat-bottom, black, 384-well plates were obtained from Corning. […] Pen/Strep was obtained from Gibco and prepared 100× in PBS. Fluconazole was obtained from Sigma and prepared in 2 mg/ml stock solution in PBS. Alamar Blue was obtained from Biosource International (Catalog No. DAL1100). Phosphate buffered solution (PBS) without calcium and magnesium was obtained from Cellgro.
Fungal inoculum was prepared as follows: 500 μl of yeast was inoculated from cryopreserved stock into a 250-ml shaker flask containing 30 ml growth medium and shaken overnight (16 hours) at 30° C. The culture was spun down, and the broth was poured off and washed with RPMI medium. The culture was spun down again, and the broth was poured off and resuspended in RPMI medium. The OD 600 of 1 ml of fungal culture in a cuvette was read using a standard optical density reader with growth medium as a background blank. The desired volume of fungal inoculum was diluted to starting OD of the fungal inoculum of 0.00015 A600.
Pen/Strep was added to the media to a final 1% concentration. A Combi NL (Thermo) was used to dispense 20 μl/well of assay media into all wells. Geldanamycin (1.5 mM) and fluconazole (0.2 mg/ml) were mixed for the positive control. Then, 80 nl of positive control solution was dispensed into the positive control wells using Thermo Combi nL for a final concentration of 3 μM geldanamycin and 8 μg/ml fluconazole. Then, 100 nl of test compound were pinned from the compound plates into assay plates using a CyBi-Well pin tool. A further 20 μl/well of RPMI synthetic defined medium culture was dispensed into 384-well, black plates. Fungal suspension (20 μl/well) was dispensed into all wells. The plates were incubated in a humidified (90% humidity) Liconic incubator at 37° C. without agitation for 48 hours. Alamar Blue Reagent was diluted 1:40 in Ca/Mg-free PBS. To all plates, 6.4 μl/well of the diluted Alamar Blue was added to the plates to a final dilution factor of 1:200. The plates were incubated for 2 hours at room temperature. Next, RFU of wells was read on a standard plate reader as a measure of relative fungal growth.

[5] = Plasma protein binding; conditions: % bound in human plasma
[6] = PBS solubility; conditions: PBS
[7] = tested on: NIH-3T3 mammalian fibroblasts; assay: Counterscreen mammalian cell toxicity assay (fibroblast toxicity); format: cell-based, murine; conditions: for ** CaCi-2 to anti-target fold selectivity: fibroblast IC50 over CaCi-2 IC50 with fluconazole; for IC50: footnote: in the absence of fluconazole, read-out: Anti-target Potency (μM) Mean ± S.E.M Fibroblasts^b IC50
[8] = 37° C., 48 hours, with 8 μg/mL (26 μM) fluconazole, average of at least three experiments

| SMILES | IC50 [1] | IC50 [2] | Plasma Stability [3] | IC50 ([4]; in the absence of fluconazole) | Plasma Protein Binding [5] | PBS Solubility [6] | IC50 [4] | ** CaCi-2 to anti-target fold selectivity [7] | IC50 [7] | solubility ([6]; aqueous buffer) | IC50 ([7]; Mus musculus, NIH3T3) | IC50 ([4]; Candida albicans, CACI2, in the absence of fluconazole) | CaCi-8 IC50 (μM) [1, 8] | CaCi-2 IC50 (μM) [2, 8] |
| --- | --- | --- | --- | --- | --- | --- | --- | --- | --- | --- | --- | --- | --- | --- |
| c1ccc(-c2n[nH]c3ccccc23)cc1 [Compound 300385] | > 26 µM | 3 µM | > 99% | > 26 µM | 98% |  |  |  |  |  |  |  |  |  |
| COC(=O)Cn1nc(-c2ccccc2)c2ccccc21 [Compound 3243873] | 2.53 ± 1.13 µM | 1.86 ± 0.99 µM | < 1.0% | > 26 µM | 96% |  |  |  |  |  |  |  |  |  |
| CNC(=O)Cn1nc(-c2ccccc2)c2ccccc21 [Compound 13330955] | > 26 µM |  | > 99% | > 26 µM | 93% | < 18.5 µM |  |  |  |  |  |  |  |  |
| O=C(Cn1nc(-c2ccccc2)c2ccccc21)N1CCc2ccccc2C1 [Compound 20877557] | > 26 µM |  | 97% | > 26 µM | > 99% | < 1.0 µM |  |  |  |  |  |  |  |  |
| COC(=O)[C@@H](C)n1nc(-c2ccccc2)c2ccccc21.COC(=O)[C@H](C)n1nc(-c2ccccc2)c2ccccc21 [Compound 49835813] | 15.8 µM | 6.56 ± 0.79 µM | 61% | > 26 µM | > 99% | < 1.0 µM |  |  |  |  |  |  |  |  |
| COC(=O)Cn1nc(-c2ccccc2)c2ccc(F)cc21 [Compound 49835815] | 8.34 µM | 5.1 µM | 1.1% | > 26 µM | 97% |  |  |  |  |  |  |  |  |  |
| CCC(=O)Cn1nc(-c2ccccc2)c2ccccc21 [Compound 49835816] | > 26 µM |  | 98% |  | 99% | < 1.0 µM | > 26 µM |  |  |  |  |  |  |  |
| COC(=O)Cn1nc(-c2ccccc2)c2ccc(Cl)cc21 [Compound 49835818] | 8.57 µM | 3.79 µM | 90% | > 26 µM | 18% |  |  | 7.9 | 29.9 µM |  |  |  |  |  |
| COC(=O)Cn1nc(-c2cccc(C)c2)c2ccccc21 [Compound 49835823] | 1.34 µM | 0.65 µM | 4.7% | > 26 µM | 98% |  |  |  |  |  |  |  |  |  |
| O=C1OCCC1n1nc(-c2ccccc2)c2ccccc21 (stereo not shown) [Compound 49835834] | > 26 µM |  | PBS Solubility: <1.0 μM Plasma Protein Binding: ND Plasma Stability: <1.0% Purity (UPLC): 65% | > 26 µM |  | PBS Solubility: <1.0 μM Plasma Protein Binding: ND Plasma Stability: <1.0% Purity (UPLC): 65% |  |  |  |  |  |  |  |  |
| COC(=O)CCn1nc(-c2ccccc2)c2ccccc21 [Compound 49835835] | > 26 µM |  | 74% | > 26 µM | > 99% | < 1.0 µM |  |  |  |  |  |  |  |  |
| COC(=O)Cn1nc(-c2ccccc2OC)c2ccccc21 [Compound 49835850] | 10.2 µM | 6.21 µM | < 1.0% | > 26 µM | 92% |  |  | 0.17 | 1.54 µM |  |  |  |  |  |
| COC(=O)Cn1ncc2ccccc21 [Compound 49835852] |  |  | < 1.0% |  | < 1.0% |  |  |  | 0.74 µM |  |  |  |  |  |
| COC(=O)Cn1nc(-c2ccc(C(F)(F)F)cc2)c2ccccc21 [Compound 49835854] | > 26 µM |  | 17% | > 26 µM | 97% |  |  |  | 0.68 µM |  |  |  |  |  |
| COC(=O)Cn1nc(-c2cncnc2)c2ccccc21 [Compound 49835858] |  |  | < 1.0% |  |  |  |  |  |  | 155 µM (≈ 41.5 µg/mL) | > 6 µM | > 26 µM |  |  |
| COC(=O)Cn1nc(-c2ccccc2C)c2ccccc21 [Compound 49835865] | 7.25 µM | 5.5 µM | < 1.0% | > 26 µM | < 1.0% |  |  |  |  |  |  |  |  |  |
| COC(=O)Cn1nc(-c2ccccc2)c2ccc(C)cc21 [Compound 49835872] | 9.62 µM | 3.14 µM | 6.5% | > 26 µM | 98% |  |  | 10 | 31.6 µM |  |  |  |  |  |
| COC(=O)Cn1nc(-c2ccccc2)c2cc(C)ccc21 [Compound 49835874] | 5.33 µM | 3.28 µM | < 1.0% | > 26 µM | 95% |  |  | 21 | 69.5 µM |  |  |  |  |  |
| COC(=O)Cn1nc(-c2ccc(F)cc2)c2ccccc21 [Compound 49835876] | 10.2 µM | 6.26 µM | < 1.0% | > 26 µM | 93% |  |  |  |  |  |  |  |  |  |
| COC(=O)Cn1nc(-c2cccc(OC)c2)c2ccccc21 [Compound 49835877] | 1.21 µM | 0.44 µM | 2.6% | > 26 µM | 95% |  |  |  | > 26 µM |  |  |  |  |  |
| CN(C)C(=O)Cn1nc(-c2ccccc2)c2ccccc21 [Compound 49835882] | > 26 µM |  | 98% |  | 98% | 325.5 µM | > 26 µM |  |  |  |  |  |  |  |
| COC(=O)Cn1nc(-c2ccccc2)c2cc(F)ccc21 [Compound 49835889] | 6.98 µM | 4.63 µM | 1.0% | > 26 µM | > 96% |  |  |  |  |  |  |  |  |  |
| COC(=O)Cn1ncc2ccccc21 [—H] |  |  |  |  |  |  |  |  |  |  |  |  | inactive | inactive |

From patent US9738610B2, “Indazole derivatives and uses thereof” (Whitehead Institute for Biomedical Research, priority 2012, dated 2017)
